In patent US20230340012A1, “NATURAL AND SYNTHETIC COMPOUNDS FOR TREATING CANCER AND OTHER DISEASES” (PACIFIC ARROW LIMITED, priority 2009, published 2023):
Where “and” joins values, the source holds several entries; their conditions need not be identical. Equal entries are not always repeated.

Columns and labels:
HepG2 cells = assay: Combined effect of anti-DR5 and Tig-R in HepG2 cells, MTT; assay type: cell-based, human
Method: Cells Culture: HepG2 cells (liver cancer cells) were cultured in DMEM medium supplemented with 10% FBS, antibiotics (Pen Strep) and L-Glutamine. Cells were incubated in a 37° C., 5% CO2 incubator.
Antibody: Antibody against Human TRAIL R2/TNFRSF 10B, (from R&D Systems cat# MAB631-100).
Drug: Tig-R (5 and 7.5 ug/ml in culture medium).
Treatment. Cells in log-growth phase were used. Cells were plated in 96-welled plate with 10 K/well over night before treatment.
Antibodies are serially diluted with medium (started from 1 ug/ml) before adding to cell culture and incubated for 2 days.
For combination studies, Tig-R (5 ug/ml or 7.5 ug/ml) were added together with antibody. After a treatment for 2 days, the quantity of live cells is determined with MTT assay*. The percentage of cell growth with drugs was determined by comparing to those of no-drug (DMSO) control.
MTT assay. Cell growth activity was determined by MTT assay (Carmichael et al.,). […] The formation of formazan was dissolved with DMSO and the O.D. at 490 nm was measured by an ELISA reader. The MTT level of cells before drug-treatment was also measured (T0). The % cell-growth (%G) is calculated as: %G = (TD-T0 / TC-T0) × 100 (1) where TC or TD represent O.D. readings of control or drug-treated cells.
When T0 > TD, then the negative growth (cytotoxicity) is expressed as - % of the control and is calculated as: - %G = (TD-T0 / T0) × 100.

[1] = test system: DR5 (TNFRSF10B) in U2OS cells; assay: DR5 Western blot, U2OS cells; assay type: cell-based, human
[2] = test system: DR5 (TNFRSF10B) in HepG2 cells; assay: DR5 Western blot, HepG2 cells; assay type: cell-based, human; conditions: 2 days
Method: (§1) A. Cells and drug-treatment: HepG2 cells (liver cancer cells), CAPAN cells, ES2 cells (Ovary cell) were cultured in DMEM medium with 10% FBS, antibiotics (Pen Strep) and L-Glutamine in a 37° C., 5% CO2 incubator. Cells in log-growth phase were treated with Tig-R (10 ug/ml), Tig-S (4 ug/ml) or DMSO (as control) for 2 days.
(§2) B. Total cell protein extraction: Drug-treated cells were collected, pelleted with centrifugation. The cell pellet was extracted with SDS-Sample buffer (containing PMSF and protease inhibitors cocktail). About 0.1 gram cell pellet was extracted in 1 ml of extraction buffer. The cell extract was then incubated in boiling water bath for 6 minutes with occasionally vortexing. The protein extract was immediately frozen in -80° C. before used.
(§3) C. SDS gel electrophoresis: 10-20 ug of protein sample was loaded into each lane of a 10% SDS gel. Electrophoresis was conducted with 100 volt constant for 2 hours.
(§4) D. Western Blot: Separated proteins from SDS gel were transferred to a nitrocellulose membrane, which was blocked with 5% non-fat dry milk. The membrane was then exposed to 1st antibody (anti-TNFRSF10B) over night, then washed. The membrane was then incubated in 2nd antibody (anti-mouse-AP conjugated) for an hour, then washed. The immuno-bands were developed with BCIP/NBT substrate.
(§5) E. Another SDS gel with same sample loading was stained with Coomassie Brilliant Blue (CBB) for protein staining.
(§6) F. Determination of Western blot band intensity: The band-images of Western blot were captured with a digital camera and the intensity of bands was determined using “Image J” software.

[3] = test system: DR5 (TNFRSF10B) in CAPAN cells; assay: DR5 Western blot, CAPAN cells; assay type: cell-based, human; conditions: Tig-R 10 ug/ml, 2 days
Method: as §1, §2, §3, §4, §5, §6

[4] = test system: Human leukemia cells K562; assay: Apoptosis in K562 cells, Annexin V / propidium iodide flow cytometry; assay type: cell-based; conditions: for apoptotic cells population: two days, background 10-15%
Method: • 1. Cells: Human leukemia cells K562 cultured in RPMI1640 medium. • 2. Drug: Tig-S (1000x stock solution in DMSO). • 3. Start cells concentration: 500000/ml. • 4. Cells were cultured with drug (0 - 20 ug/ml) for Two days. • 5. Collect cells from culture (1 - 4 million) by centrifugation (136xg for 5 min. remove supernatant). • 6. Wash cells with 1 ml of cold PBS, collect cells by centrifugation (136xg, 5 min, remove supernatant). • 7. Re-suspend cells in 200 ul Binding buffer (10 mM HEPES, 140 mM NaCl, 2.5 mM CaCl2, pH 7.4). • 8. Stained cells by adding 10 ul Annexin V (Alexa Fluor 488, Invitrogen cat# A13201), and 2 ul Propidium iodide (1 mg/ml in water) to cell suspension. Mix. • 9. Sit at Room temperature for 15 min. • 10. Wash cells with 1 ml binding buffer. Collect cells by centrifugation. • 11. Re-suspend cells with in 1 ml of binding buffer for analysis by flow cytometry. • 12. Flow Cytometry analysis was performed in Baylor Core Facility with a LSRII instrument. • 13. Analysis: Control cells stained with PI or Annexin V-488 (Annexin V-FITC) alone were served as references. About 50000 cells were analyzed for each sample. • 14.Cell distribution in following groups: live, early apoptosis, late-apoptosis, total apoptosis and dead cells were determined. • 15.

[5] = U2OS cells, Tig-R, single experiments 1-2
[6] = HepG2 cells, Tig-R 10 ug/ml, single experiments 1-4

Row | Compound | combined effect with anti-DR5 antibody (HepG2 cells; HepG2, Tig-R 5 or 7.5 ug/ml) | inhibition of HepG2 cells' growth (HepG2 cells; Tig-R alone 5 ug/ml, 2 days) | DR5 band intensity, % of DMSO, Average (%) ([1]; U2OS cells, Tig-R, average of 2 experiments) | DR5 Western blot band intensity (Image J) [1, 5] | DR5 band intensity, % of DMSO [1, 5] | increase of DR5 over DMSO control cells ([1]; U2OS, Tig-R treatment) [%] | increase of DR5 over DMSO control cells ([2]; HepG2, Tig-R 10 ug/ml) [%] | DR5 band intensity, % of DMSO, Average (%) ([2]; HepG2 cells, Tig-R 10 ug/ml, average of 4 experiments, SD 37) | DR5 Western blot band intensity (Image J) [2, 6] | DR5 band intensity, % of DMSO [2, 6] | DR5 Western blot band intensity (Image J) ([3]; CAPAN cells) | DR5 band intensity, % of DMSO ([3]; CAPAN cells) [%] | increase of DR5 over DMSO control cells ([3]; CAPAN) [%] | apoptotic cells population ([4]; 2.5 ug/ml) [%] | apoptotic cells population ([4]; 20 ug/ml) [%] | mechanism of cell death ([4]; K562)
1 | 24,28-O-Tigloyl-3β,16α, 21β, 22a, 24β, 28-hexahydroxyolean-12-ene [Tig-R] | synergistic | 15-20% | 206 | 18269 and 16969 | 209% and 203% | 106 | 69 | 169 | 31752 and 19291 and 22435 and 33645 | 194% and 122% and 202% and 156% | 29128 | 151 | 51 |  |  | 
2 | CC=C(C)C(=O)OCC1(C)C(O)CCC2(C)C1CCC1(C)C2CC=C2C3CC(C)(C)C(OC(=O)C(C)=CC)C(O)C3(CO)C(O)CC21C (stereo not shown) [Tig-S] |  |  |  |  |  |  |  |  |  |  |  |  |  | 15 | 27 | induces cell-death by the apoptosis mechanism
